Results: PubChem BioAssay (NCI)
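Interpolation was linear, between the two tested concentrations surrounding the appropriate level; five concentrations were tested over 48 hours in 96-well plates. TGI is the concentration that stops growth completely.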

Tests used:
Test in all cases: growth of human tumour cells (NCI), 48 h
A549 NSCLC = test system: A549 NSCLC
SF-539 CNS = test system: SF-539 CNS
SNB-19 CNS = test system: SNB-19 CNS
EKVX NSCLC = test system: EKVX NSCLC
SF-295 CNS = test system: SF-295 CNS
A498 renal = test system: A498 renal
OVCAR-4 ovarian = test system: OVCAR-4 ovarian
SK-MEL-28 melanoma = test system: SK-MEL-28 melanoma
HCT-15 colon = test system: HCT-15 colon
HS 578T breast = test system: HS 578T breast
BT-549 breast = test system: BT-549 breast
MDA-N = test system: MDA-N
SR leukemia = test system: SR leukemia
SNB-75 CNS = test system: SNB-75 CNS
HCT-116 colon = test system: HCT-116 colon
HT29 colon = test system: HT29 colon
OVCAR-3 ovarian = test system: OVCAR-3 ovarian
NCI-H522 lung = test system: NCI-H522 lung
LOX IMVI melanoma = test system: LOX IMVI melanoma
UO-31 renal = test system: UO-31 renal
HOP-92 NSCLC = test system: HOP-92 NSCLC
SF-268 CNS = test system: SF-268 CNS
NCI-H226 lung = test system: NCI-H226 lung
NCI/ADR-RES ovarian = test system: NCI/ADR-RES ovarian
SN12C renal = test system: SN12C renal
NCI-H23 lung = test system: NCI-H23 lung
K-562 leukemia = test system: K-562 leukemia
M14 melanoma = test system: M14 melanoma
UACC-257 melanoma = test system: UACC-257 melanoma
TK-10 renal = test system: TK-10 renal
MOLT-4 leukemia = test system: MOLT-4 leukemia
RXF 393 renal = test system: RXF 393 renal
IGROV1 ovarian = test system: IGROV1 ovarian
HCC-2998 colon = test system: HCC-2998 colon
MCF7 breast = test system: MCF7 breast
SK-MEL-2 melanoma = test system: SK-MEL-2 melanoma
CCRF-CEM leukemia = test system: CCRF-CEM leukemia
OVCAR-8 ovarian = test system: OVCAR-8 ovarian
RPMI-8226 leukemia = test system: RPMI-8226 leukemia
SW-620 colon = test system: SW-620 colon
ACHN renal = test system: ACHN renal
PC-3 prostate = test system: PC-3 prostate
U251 CNS = test system: U251 CNS
HOP-62 NSCLC = test system: HOP-62 NSCLC
CAKI-1 renal = test system: CAKI-1 renal
HL-60(TB) leukemia = test system: HL-60(TB) leukemia
SK-OV-3 ovarian = test system: SK-OV-3 ovarian
OVCAR-5 ovarian = test system: OVCAR-5 ovarian
NCI-H460 lung = test system: NCI-H460 lung
MDA-MB-435 = test system: MDA-MB-435
MDA-MB-231 breast = test system: MDA-MB-231 breast
UACC-62 melanoma = test system: UACC-62 melanoma
KM12 colon = test system: KM12 colon
DU-145 prostate = test system: DU-145 prostate
T-47D breast = test system: T-47D breast
COLO 205 colon = test system: COLO 205 colon
MALME-3M melanoma = test system: MALME-3M melanoma
SK-MEL-5 melanoma = test system: SK-MEL-5 melanoma
786-0 renal = test system: 786-0 renal

SMILES: CC(=O)OCC1OC(OCCCCCCO)C(OC(C)=O)C(OC(C)=O)C1OC(C)=O (stereo not drawn)
- TGI (A549 NSCLC): > 100 µM
- TGI (SF-539 CNS): > 100 µM
- TGI (SNB-19 CNS): > 100 µM
- TGI (EKVX NSCLC): > 100 µM
- TGI (SF-295 CNS): > 100 µM
- TGI (A498 renal): > 100 µM
- TGI (OVCAR-4 ovarian): > 100 µM
- TGI (SK-MEL-28 melanoma): > 100 µM
- TGI (HCT-15 colon): > 100 µM
- TGI (HS 578T breast): > 100 µM
- TGI (BT-549 breast): > 100 µM
- TGI (MDA-N): > 100 µM
- TGI (SR leukemia): > 100 µM
- TGI (SNB-75 CNS): > 100 µM
- TGI (HCT-116 colon): > 100 µM
- TGI (HT29 colon): > 100 µM
- TGI (OVCAR-3 ovarian): > 100 µM
- TGI (NCI-H522 lung): > 100 µM
- TGI (LOX IMVI melanoma): > 100 µM
- TGI (UO-31 renal): > 100 µM
- TGI (HOP-92 NSCLC): > 100 µM
- TGI (SF-268 CNS): > 100 µM
- TGI (NCI-H226 lung): > 100 µM
- TGI (NCI/ADR-RES ovarian): > 100 µM
- TGI (SN12C renal): > 100 µM
- TGI (NCI-H23 lung): > 100 µM
- TGI (K-562 leukemia): > 100 µM
- TGI (M14 melanoma): > 100 µM
- TGI (UACC-257 melanoma): > 100 µM
- TGI (TK-10 renal): > 100 µM
- TGI (MOLT-4 leukemia): > 100 µM
- TGI (RXF 393 renal): > 100 µM
- TGI (IGROV1 ovarian): > 100 µM
- TGI (HCC-2998 colon): > 100 µM
- TGI (MCF7 breast): > 100 µM
- TGI (SK-MEL-2 melanoma): > 100 µM
- TGI (CCRF-CEM leukemia): > 100 µM
- TGI (OVCAR-8 ovarian): > 100 µM
- TGI (RPMI-8226 leukemia): > 100 µM
- TGI (SW-620 colon): > 100 µM
- TGI (ACHN renal): > 100 µM
- TGI (PC-3 prostate): > 100 µM
- TGI (U251 CNS): > 100 µM
- TGI (HOP-62 NSCLC): > 100 µM
- TGI (CAKI-1 renal): > 100 µM
- TGI (HL-60(TB) leukemia): > 100 µM
- TGI (SK-OV-3 ovarian): > 100 µM
- TGI (OVCAR-5 ovarian): > 100 µM
- TGI (NCI-H460 lung): > 100 µM
- TGI (MDA-MB-435): > 100 µM
- TGI (MDA-MB-231 breast): > 100 µM
- TGI (UACC-62 melanoma): > 100 µM
- TGI (KM12 colon): > 100 µM

SMILES: COc1cc(C2SC(C)C(=O)N2c2ccc(-c3csc(NS(=O)(=O)c4ccc(Cl)c(OC)c4)n3)cc2)ccc1O (stereo not drawn)
- TGI (A549 NSCLC): > 100 µM
- TGI (SF-539 CNS): > 100 µM
- TGI (SNB-19 CNS): > 100 µM
- TGI (SF-295 CNS): > 100 µM
- TGI (A498 renal): > 100 µM
- TGI (OVCAR-4 ovarian): 79.9 µM
- TGI (SK-MEL-28 melanoma): > 100 µM
- TGI (HCT-15 colon): > 100 µM
- TGI (HS 578T breast): > 100 µM
- TGI (DU-145 prostate): > 100 µM
- TGI (MDA-N): > 100 µM
- TGI (SR leukemia): > 100 µM
- TGI (SNB-75 CNS): 61 µM
- TGI (HCT-116 colon): > 100 µM
- TGI (HT29 colon): > 100 µM
- TGI (OVCAR-3 ovarian): > 100 µM
- TGI (T-47D breast): > 100 µM
- TGI (NCI-H522 lung): 47.1 µM
- TGI (LOX IMVI melanoma): > 100 µM
- TGI (UO-31 renal): > 100 µM
- TGI (HOP-92 NSCLC): > 100 µM
- TGI (SF-268 CNS): 84.6 µM
- TGI (NCI-H226 lung): > 100 µM
- TGI (NCI/ADR-RES ovarian): > 100 µM
- TGI (SN12C renal): 56.7 µM
- TGI (NCI-H23 lung): 53.6 µM
- TGI (K-562 leukemia): > 100 µM
- TGI (M14 melanoma): > 100 µM
- TGI (UACC-257 melanoma): > 100 µM
- TGI (TK-10 renal): > 100 µM
- TGI (COLO 205 colon): > 100 µM
- TGI (MOLT-4 leukemia): > 100 µM
- TGI (RXF 393 renal): > 100 µM
- TGI (IGROV1 ovarian): > 100 µM
- TGI (MALME-3M melanoma): 82.4 µM
- TGI (MCF7 breast): > 100 µM
- TGI (SK-MEL-5 melanoma): > 100 µM
- TGI (SK-MEL-2 melanoma): > 100 µM
- TGI (CCRF-CEM leukemia): > 100 µM
- TGI (OVCAR-8 ovarian): > 100 µM
- TGI (SW-620 colon): > 100 µM
- TGI (ACHN renal): > 100 µM
- TGI (PC-3 prostate): > 100 µM
- TGI (U251 CNS): > 100 µM
- TGI (HOP-62 NSCLC): > 100 µM
- TGI (786-0 renal): > 100 µM
- TGI (CAKI-1 renal): > 100 µM
- TGI (HL-60(TB) leukemia): 95.7 µM
- TGI (SK-OV-3 ovarian): > 100 µM
- TGI (OVCAR-5 ovarian): > 100 µM
- TGI (NCI-H460 lung): > 100 µM
- TGI (MDA-MB-435): > 100 µM
- TGI (MDA-MB-231 breast): > 100 µM
- TGI (UACC-62 melanoma): 55.3 µM
- TGI (KM12 colon): 48.3 µM
